Common to all, as to assay type: functional
In assay [1] the test system is Saccharomyces cerevisiae. In words: Antimicrobial activity against Saccharomyces cerevisiae ATCC 9763 after 24 hrs by microbroth dilution method. The note with it: ATCC 9763, 24 h. (In general: Broth dilution looks for growth in wells or tubes with falling amounts of substance.)
The subject of assay [2] is Candida. In words: Antimicrobial activity against Candida mycoderma after 24 hrs by microbroth dilution method.
For assay [3], the system named is Cyberlindnera jadinii. Description: Antimicrobial activity against Candida utilis ATCC 9950 after 24 hrs by microbroth dilution method. The note with it: Williopsis jadinii, ATCC 9950, 24 h.
Assay [4] has as its system Bacillus spizizenii. Description: Antimicrobial activity against Bacillus subtilis ATCC 6633 after 24 hrs by microbroth dilution method. To be noted: ATCC 6633, 24 h.
Assay [5] concerns Candida albicans. In words: Antimicrobial activity against Candida albicans ATCC 90029 after 24 hrs by microbroth dilution method. To be noted: ATCC 90029, 24 h.
Assay [6] has as its system Micrococcus luteus. In words: Antimicrobial activity against Micrococcus luteus ATCC 4698 after 24 hrs by microbroth dilution method. The note with it: NCTC 2665, 24 h.
Assay [7] deals with Pseudomonas aeruginosa. Description: Antimicrobial activity against Pseudomonas aeruginosa ATCC 27853 after 24 hrs by microbroth dilution method. To be noted: ATCC 27853, 24 h.
Assay [8] concerns Staphylococcus aureus. Description: Antimicrobial activity against Staphylococcus aureus ATCC 25923 after 24 hrs by microbroth dilution method. To be noted: ATCC 25923, 24 h.
Assay [9] has as its system Staphylococcus aureus. Description: Antimicrobial activity against methicillin-resistant Staphylococcus aureus N315 after 24 hrs by microbroth dilution method. To be noted: N315, 24 h.
The test system of assay [10] is Shigella dysenteriae. In words: Antimicrobial activity against Shigella dysenteriae ATCC 51252 after 24 hrs by microbroth dilution method. The note with it: ATCC 51252, 24 h.
Assay [11] has as its system Proteus vulgaris. In words: Antimicrobial activity against Proteus vulgaris ATCC 8427 after 24 hrs by microbroth dilution method. The note with it: ATCC 8427, 24 h.
Assay [12] relates to Escherichia coli. In words: Antimicrobial activity against Escherichia coli […] after 24 hrs by microbroth dilution method.

Values after ≈ are worked out from the molar mass of the structure shown. Bounds are passed on as bounds.

From ChEMBL document CHEMBL3217727, “Berberine azoles as antimicrobial agents: synthesis, biological evaluation and their interactions with human serum albumin” (Medchemcomm, 2013) come the findings set out here.

As to `COc1ccc2cc3[n+](cc2c1OCCN(CCn1cncn1)Cc1ccc(Cl)cc1)CCc1cc2c(cc1-3)OCO2.[Cl-]`, the MIC80 (in general, an inhibitory concentration at the 80% level, which refers to growth in some studies and to a panel of isolates in others) in assay [1] turned out to be 32 µg/mL; in assay [2], 32 µg/mL; in [3], 16 µg/mL; in assay [5] it was 32 µg/mL. The MIC (usually the lowest concentration that inhibits growth of the organism) in assay [4] came to 8 µg/mL; in assay [6] it was 16 µg/mL.

As for `COc1ccc2cc3[n+](cc2c1OCCN(CCn1cncn1)Cc1cccc(Cl)c1)CCc1cc2c(cc1-3)OCO2.[Cl-]`, the MIC80 worked out at 32 µg/mL in assay [1], 4 µg/mL in assay [2], 8 µg/mL in [3] and 16 µg/mL in assay [5]. The MIC stood at 16 µg/mL in [4] and 32 µg/mL in assay [6].

For `COc1ccc2cc3[n+](cc2c1OCCN(CCn1cncn1)Cc1ccccc1Cl)CCc1cc2c(cc1-3)OCO2.[Cl-]`, the MIC80 amounted to 16 µg/mL in assay [1], 8 µg/mL in assay [2], 32 µg/mL in assay [3] and 16 µg/mL in assay [5]. Also, the figures for the MIC in [4] and in assay [6] were 8 µg/mL and 32 µg/mL, respectively.

As for `COc1ccc2cc3[n+](cc2c1OCCN(CCn1cncn1)Cc1ccc(Cl)c(Cl)c1)CCc1cc2c(cc1-3)OCO2.[Cl-]`, the MIC80 in assay [1] stood at 32 µg/mL; in assay [2], 4 µg/mL; in assay [3], 32 µg/mL; in assay [5], 8 µg/mL. In addition, the MIC in [4] came out at 8 µg/mL; in assay [6], 16 µg/mL.

Take `COc1ccc2cc3[n+](cc2c1OCCN(CCn1cncn1)Cc1ccc(Cl)cc1Cl)CCc1cc2c(cc1-3)OCO2.[Cl-]`: the MIC80 in assay [1] came to 16 µg/mL; in [2], 4 µg/mL; in assay [3], 16 µg/mL; in assay [5], 4 µg/mL. In addition, the MIC in [4] amounted to 8 µg/mL; in [6] it was 16 µg/mL.

For the molecule `COc1ccc2cc3[n+](cc2c1OCCN(CCn1cncn1)Cc1cccc(F)c1)CCc1cc2c(cc1-3)OCO2.[Cl-]`, the MIC80 in [1] was found to be 16 µg/mL; in assay [2], 4 µg/mL; in assay [3], 8 µg/mL; in assay [5], 4 µg/mL. Besides, the results for the MIC in [4] and in [6] were 8 µg/mL and 16 µg/mL, respectively.

With `COc1ccc2cc3[n+](cc2c1OCCN(CCn1cncn1)Cc1ccccc1F)CCc1cc2c(cc1-3)OCO2.[Cl-]`, the MIC80 was 16 µg/mL in [1], 2 µg/mL in [2], 16 µg/mL in [3] and 4 µg/mL in [5]. Moreover, the MIC in assay [4] and in assay [6] was 8 µg/mL in each case.

Consider `Clc1ccc(CN(CCBr)CCn2cncn2)cc1`, for which the MIC80 in assay [1] was 64 µg/mL (≈ 186 µM); in assay [2] it was 256 µg/mL (≈ 745 µM); in assay [3], 128 µg/mL (≈ 372 µM); in assay [5], 128 µg/mL (≈ 372 µM). Moreover, the MIC was found to be 256 µg/mL (≈ 745 µM) in [4] and 512 µg/mL (≈ 1490 µM) in [6].

As for `Clc1cccc(CN(CCBr)CCn2cncn2)c1`, the MIC80 was determined as 128 µg/mL (≈ 372 µM) in [1], 256 µg/mL (≈ 745 µM) in assay [2], 256 µg/mL (≈ 745 µM) in assay [3] and 64 µg/mL (≈ 186 µM) in [5]. Further, the figures for the MIC in [4] and in assay [6] were 256 µg/mL (≈ 745 µM) and 64 µg/mL (≈ 186 µM), respectively.

In the case of `Clc1ccc(CN(CCBr)CCn2cncn2)c(Cl)c1`, the MIC80 in [1] came out at 256 µg/mL (≈ 677 µM); in assay [2], 256 µg/mL (≈ 677 µM); in assay [3] it was 256 µg/mL (≈ 677 µM); in assay [5], 32 µg/mL (≈ 84.6 µM). In addition, the MIC in [4] was determined as 256 µg/mL (≈ 677 µM); in assay [6], 32 µg/mL (≈ 84.6 µM).

Turning to `Clc1ccc(CN(CCBr)CCn2cncn2)cc1Cl`, the MIC80 turned out to be 128 µg/mL (≈ 339 µM) in assay [1], 256 µg/mL (≈ 677 µM) in [2], 64 µg/mL (≈ 169 µM) in assay [3] and 32 µg/mL (≈ 84.6 µM) in assay [5]. The MIC in assay [4] turned out to be 256 µg/mL (≈ 677 µM); in assay [6] it was 32 µg/mL (≈ 84.6 µM).

As for `Clc1ccccc1CN(CCBr)CCn1cncn1`, the MIC80 in assay [1] is 256 µg/mL (≈ 745 µM); in assay [2], 256 µg/mL (≈ 745 µM); in [3], 128 µg/mL (≈ 372 µM); in assay [5] it was 64 µg/mL (≈ 186 µM). Besides, the results for the MIC in [4] and in [6] were 256 µg/mL (≈ 745 µM) and 64 µg/mL (≈ 186 µM), respectively.

`Fc1cccc(CN(CCBr)CCn2cncn2)c1`: the MIC80 in assay [1] is 128 µg/mL (≈ 391 µM); in [2], 256 µg/mL (≈ 782 µM); in assay [3] it was 256 µg/mL (≈ 782 µM); in assay [5] it was 32 µg/mL (≈ 97.8 µM). Besides, the MIC in [4] amounted to 256 µg/mL (≈ 782 µM); in [6], 64 µg/mL (≈ 196 µM).

In the case of `Fc1ccc(CN(CCBr)CCn2cncn2)c(F)c1`, the MIC80 in [1] stood at 128 µg/mL (≈ 371 µM); in assay [2], 256 µg/mL (≈ 742 µM); in assay [3], 256 µg/mL (≈ 742 µM); in assay [5], 32 µg/mL (≈ 92.7 µM). Also, the MIC in assay [4] came to 256 µg/mL (≈ 742 µM); in assay [6], 32 µg/mL (≈ 92.7 µM).

As to `Fc1ccccc1CN(CCBr)CCn1cncn1`, the MIC80 in [1] was 64 µg/mL (≈ 196 µM); in assay [2] it was 256 µg/mL (≈ 782 µM); in [3] it was 128 µg/mL (≈ 391 µM); in assay [5], 32 µg/mL (≈ 97.8 µM). In addition, the MIC in assay [4] was 256 µg/mL (≈ 782 µM); in assay [6], 64 µg/mL (≈ 196 µM).

For the molecule `Fc1ccc(CN(CCBr)CCn2ccnc2)c(F)c1`, the MIC in assay [7] was 32 µg/mL (≈ 93 µM); in [8] it was 64 µg/mL (≈ 186 µM); in assay [4], 128 µg/mL (≈ 372 µM); in assay [9], 64 µg/mL (≈ 186 µM); in assay [10], 128 µg/mL (≈ 372 µM); in assay [11] it was 256 µg/mL (≈ 744 µM). Moreover, the results for the MIC in [12] and in assay [6] were 128 µg/mL (≈ 372 µM) and 64 µg/mL (≈ 186 µM), respectively. Further, the MIC80 in assay [1] was found to be 128 µg/mL (≈ 372 µM); in [2], 32 µg/mL (≈ 93 µM); in assay [3] it was 64 µg/mL (≈ 186 µM); in assay [5] it was 64 µg/mL (≈ 186 µM).

As for `COc1ccc2cc3[n+](cc2c1OCCN(CCn1ccnc1)Cc1ccc(F)cc1F)CCc1cc2c(cc1-3)OCO2.[Cl-]`, the MIC in [7] came to 16 µg/mL; in [8] it was 8 µg/mL; in [4], 16 µg/mL; in [9] it was 16 µg/mL; in assay [10] it was 16 µg/mL; in assay [11], 32 µg/mL. Also, the MIC in [12] and in assay [6] was 32 µg/mL in each case. In addition, the MIC80 in assay [1], in assay [2], in assay [3] and in assay [5] was 32 µg/mL in each case.

As for `Fc1ccc(CN(CCBr)CCn2cnc3ccccc32)c(F)c1`, the MIC in assay [7] was 128 µg/mL (≈ 325 µM); in [8], 128 µg/mL (≈ 325 µM); in assay [4], 256 µg/mL (≈ 649 µM); in [9], 256 µg/mL (≈ 649 µM); in assay [10], 64 µg/mL (≈ 162 µM); in assay [11], 512 µg/mL (≈ 1300 µM). Further, the MIC amounted to 512 µg/mL (≈ 1300 µM) in assay [12] and 256 µg/mL (≈ 649 µM) in assay [6]. In addition, the MIC80 in [1] came out at 128 µg/mL (≈ 325 µM); in assay [2], 64 µg/mL (≈ 162 µM); in assay [3], 128 µg/mL (≈ 325 µM); in assay [5] it was 128 µg/mL (≈ 325 µM).

Consider `COc1ccc2cc3[n+](cc2c1OC)CCc1cc2c(cc1-3)OCO2` [BERBERINE], for which the MIC80 in assay [1] was 128 µg/mL; in assay [2], 128 µg/mL; in assay [3], 256 µg/mL; in [5] it was above 512 µg/mL. Besides, the MIC in [4] and in assay [6] was above 512 µg/mL throughout.

Turning to `O=C(N[C@H](CO)[C@H](O)c1ccc([N+](=O)[O-])cc1)C(Cl)Cl` [CHLORAMPHENICOL], the MIC in assay [4] is 32 µg/mL (≈ 99 µM); in assay [6], 8 µg/mL (≈ 24.8 µM).

For the molecule `OC(Cn1cncn1)(Cn1cncn1)c1ccc(F)cc1F` [FLUCONAZOLE], the MIC80 in assay [1] amounted to 16 µg/mL (≈ 52.2 µM); in assay [2] it was 4 µg/mL (≈ 13.1 µM); in [3], 8 µg/mL (≈ 26.1 µM); in assay [5] it was 1 µg/mL (≈ 3.27 µM).

For the molecule `CCn1cc(C(=O)O)c(=O)c2cc(F)c(N3CCNCC3)cc21` [NORFLOXACIN], the MIC was 1 µg/mL (≈ 3.13 µM) in assay [4] and 2 µg/mL (≈ 6.26 µM) in [6].
